Experimental data reported in ChEMBL document CHEMBL1126299, “Synthesis and structure-activity relationships of cephalosporins with C-3' catechol-containing residues” (J Med Chem, 1992).
Converted amounts (≈) assume the structure as drawn.

Legend:
Escherichia coli [1] = experiment: microbe, parasite or virus in culture
Description: In vitro minimum inhibitory concentration against Escherichia coli (DC2 permeability mutant).

Pseudomonas aeruginosa [2] = experiment: microbe, parasite or virus in culture
Description: Minimum inhibitory concentration in Pseudomonas aeruginosa, 18SH constitutive depressed type 1 lactamase producer

Escherichia coli [3] = experiment: microbe, parasite or virus in culture; remark: listed apart in the source
Description: In vitro minimum inhibitory concentration against Escherichia coli (DC0 parent organism).

Enterobacter cloacae [4] = experiment: microbe, parasite or virus in culture
Description: Minimum inhibitory concentration in Enterobacter cloacae, P99- inducible type 1 lactamase producer

Providencia stuartii [5] = experiment: microbe, parasite or virus in culture
Description: Minimum inhibitory concentration in Pseudomonas stuartii, DR 442049 constitutive depressed type 1 lactamase producer

Enterobacter cloacae [6] = experiment: microbe, parasite or virus in culture; remark: listed apart in the source
Description: Minimum inhibitory concentration in Enterobacter cloacae, DR 401108 constitutive depressed type 1 lactamase producer

Citrobacter freundii [7] = experiment: microbe, parasite or virus in culture
Description: Minimum inhibitory concentration in Citrobacter freundii, DR 382031 constitutive depressed type 1

Enterobacter cloacae [8] = experiment: microbe, parasite or virus in culture; remark: listed apart in the source
Description: Minimum inhibitory concentration in Enterobacter cloacae, P99+ constitutive depressed type 1 lactamase producer

Staphylococcus aureus [9] = experiment: microbe, parasite or virus in culture
Providencia stuartii [10] = experiment: microbe, parasite or virus in culture; remark: listed apart in the source
Description: Minimum inhibitory concentration in Pseudomonas stuartii, I+442019 inducible type 1 lactamase producer

Citrobacter freundii [11] = experiment: microbe, parasite or virus in culture; remark: listed apart in the source
Description: Minimum inhibitory concentration in Citrobacter freundii, I+382010 inducible type 1 lactamase producer

Pseudomonas aeruginosa [12] = experiment: microbe, parasite or virus in culture; remark: listed apart in the source
Description: In vitro minimum inhibitory concentration against Pseudomonas aeruginosa (PU21).

Staphylococcus aureus [13] = experiment: microbe, parasite or virus in culture; remark: listed apart in the source
Enterobacter cloacae [14] = experiment: microbe, parasite or virus in culture; remark: listed apart in the source
Description: Minimum inhibitory concentration in Enterobacter cloacae, I+401029 inducible type 1 lactamase producer

Pseudomonas aeruginosa [15] = experiment: microbe, parasite or virus in culture; remark: listed apart in the source
Description: Minimum inhibitory concentration in Pseudomonas aeruginosa,799/61 permeability mutant

Pseudomonas aeruginosa [16] = experiment: microbe, parasite or virus in culture; remark: listed apart in the source
Description: Minimum inhibitory concentration in Pseudomonas aeruginosa,799WT parent organism

Pseudomonas aeruginosa [17] = experiment: microbe, parasite or virus in culture; remark: listed apart in the source
Description: Minimum inhibitory concentration in Pseudomonas aeruginosa, 18S inducible type 1 lactamase producer

Staphylococcus aureus [18] = experiment: The compound was tested for minimum inhibitory concentration in Staphylococcus aureus,147N penicillin sensitive Staphylococcus aureus; assay type: functional
Staphylococcus aureus [19] = experiment: The compound was tested for minimum inhibitory concentration in Staphylococcus aureus Oxford penicillin sensitive Staphylococcus aureus; assay type: functional
[20] = The half life period in marmosets; assay type: ADME; conditions: callithrix, in vivo
[21] = The compound was evaluated for area under the curve in marmosets; assay type: ADME; conditions: callithrix, in vivo

Description for physchem: The dissociation constant of compound was tested for beta-Lactamase stability

Structure (SMILES) | MIC (Escherichia coli [1]) [µg/mL] | MIC (Pseudomonas aeruginosa [2]) [µg/mL] | MIC (Escherichia coli [3]) [µg/mL] | MIC (Enterobacter cloacae [4]) [µg/mL] | MIC (Providencia stuartii [5]) [µg/mL] | MIC (Enterobacter cloacae [6]) [µg/mL] | MIC (Citrobacter freundii [7]) [µg/mL] | MIC (Enterobacter cloacae [8]) [µg/mL] | MIC (Staphylococcus aureus [9]) [µg/mL] | MIC (Providencia stuartii [10]) [µg/mL] | MIC (Citrobacter freundii [11]) [µg/mL] | MIC (Pseudomonas aeruginosa [12]) [µg/mL] | MIC (Staphylococcus aureus [13]) [µg/mL] | MIC (Enterobacter cloacae [14]) [µg/mL] | MIC (Pseudomonas aeruginosa [15]) [µg/mL] | MIC (Pseudomonas aeruginosa [16]) [µg/mL] | MIC (Pseudomonas aeruginosa [17]) [µg/mL] | also measured
CCO/N=C(\C(=O)N[C@@H]1C(=O)N2C(C(=O)O)=C(CNC(=O)c3cn(CC)c4cc(O)c(O)cc4c3=O)CSC12)c1csc(N)n1 (stereo not given in full) | 0.008 (≈ 0.0122 µM) | 0.25 (≈ 0.38 µM) | 0.008 (≈ 0.0122 µM) | 0.03 (≈ 0.0456 µM) | 2 (≈ 3.04 µM) | 32 (≈ 48.7 µM) | 0.5 (≈ 0.76 µM) | 1 (≈ 1.52 µM) | 1 (≈ 1.52 µM) | 0.06 (≈ 0.0912 µM) | 0.008 (≈ 0.0122 µM) | 0.06 (≈ 0.0912 µM) | 2 (≈ 3.04 µM) | 0.015 (≈ 0.0228 µM) | 0.008 (≈ 0.0122 µM) | 0.015 (≈ 0.0228 µM) | 0.008 (≈ 0.0122 µM) | –
CC(C)(O/N=C(\C(=O)N[C@@H]1C(=O)N2C(C(=O)O)=C(CCc3ccc(O)c(O)c3)CSC12)c1csc(N)n1)C(=O)O (stereo not given in full) | 0.03 (≈ 0.0507 µM) | 0.125 (≈ 0.211 µM) | 0.125 (≈ 0.211 µM) | 4 (≈ 6.76 µM) | 8 (≈ 13.5 µM) | 32 (≈ 54.1 µM) | 16 (≈ 27 µM) | 32 (≈ 54.1 µM) | – | 2 (≈ 3.38 µM) | 0.25 (≈ 0.423 µM) | 0.25 (≈ 0.423 µM) | – | 0.5 (≈ 0.845 µM) | 0.125 (≈ 0.211 µM) | 0.06 (≈ 0.101 µM) | 0.03 (≈ 0.0507 µM) | MIC (Staphylococcus aureus [18]): 16 µg/mL (≈ 27 µM); MIC (Staphylococcus aureus [19]): 8 µg/mL (≈ 13.5 µM)
CC(=O)Oc1ccc(C(=O)OCC2=C(C(=O)O)N3C(=O)[C@@H](NC(=O)Cc4cccs4)C3SC2)cc1OC(C)=O (stereo not given in full) | 0.03 (≈ 0.0522 µM) | > 128 | 0.5 (≈ 0.87 µM) | 16 (≈ 27.8 µM) | > 128 | – | > 128 | > 128 | 0.06 (≈ 0.104 µM) | 64 (≈ 111 µM) | 16 (≈ 27.8 µM) | > 128 | 0.03 (≈ 0.0522 µM) | 128 (≈ 223 µM) | 0.125 (≈ 0.218 µM) | > 128 | > 128 | –
CC(C)(O/N=C(\C(=O)N[C@@H]1C(=O)N2C(C(=O)O)=C(CNC(=O)c3cc(O)c(O)c(Cl)c3)CSC12)c1csc(N)n1)C(=O)O (stereo not given in full) | 0.008 (≈ 0.0122 µM) | 0.003 (≈ 0.00458 µM) | 0.008 (≈ 0.0122 µM) | 0.06 (≈ 0.0916 µM) | 2 (≈ 3.05 µM) | 16 (≈ 24.4 µM) | 4 (≈ 6.11 µM) | 4 (≈ 6.11 µM) | 16 (≈ 24.4 µM) | 0.03 (≈ 0.0458 µM) | 0.008 (≈ 0.0122 µM) | 0.008 (≈ 0.0122 µM) | 16 (≈ 24.4 µM) | 0.06 (≈ 0.0916 µM) | 0.008 (≈ 0.0122 µM) | 0.008 (≈ 0.0122 µM) | 0.008 (≈ 0.0122 µM) | pKa (physchem): 7; half-life [20]: 4.57 h; AUC [21]: 638.3 mg/h/L
